Test results taken from ChEMBL document CHEMBL1144354, “Frontal affinity chromatography with MS detection of EphB2 tyrosine kinase receptor. 2. Identification of small-molecule inhibitors via coupling with virtual screening” (J Med Chem, 2005).
pIC50, pKd: −log10 of the molar value.

Tests used:
Ephrin type-B receptor 2 [1] = biological target: T1, Ephrin type-B receptor 2 (Homo sapiens, UniProt P29323); experiment: Equilibrium binding constant for EPH receptor B2
T1 sequence (P29323 whole entry): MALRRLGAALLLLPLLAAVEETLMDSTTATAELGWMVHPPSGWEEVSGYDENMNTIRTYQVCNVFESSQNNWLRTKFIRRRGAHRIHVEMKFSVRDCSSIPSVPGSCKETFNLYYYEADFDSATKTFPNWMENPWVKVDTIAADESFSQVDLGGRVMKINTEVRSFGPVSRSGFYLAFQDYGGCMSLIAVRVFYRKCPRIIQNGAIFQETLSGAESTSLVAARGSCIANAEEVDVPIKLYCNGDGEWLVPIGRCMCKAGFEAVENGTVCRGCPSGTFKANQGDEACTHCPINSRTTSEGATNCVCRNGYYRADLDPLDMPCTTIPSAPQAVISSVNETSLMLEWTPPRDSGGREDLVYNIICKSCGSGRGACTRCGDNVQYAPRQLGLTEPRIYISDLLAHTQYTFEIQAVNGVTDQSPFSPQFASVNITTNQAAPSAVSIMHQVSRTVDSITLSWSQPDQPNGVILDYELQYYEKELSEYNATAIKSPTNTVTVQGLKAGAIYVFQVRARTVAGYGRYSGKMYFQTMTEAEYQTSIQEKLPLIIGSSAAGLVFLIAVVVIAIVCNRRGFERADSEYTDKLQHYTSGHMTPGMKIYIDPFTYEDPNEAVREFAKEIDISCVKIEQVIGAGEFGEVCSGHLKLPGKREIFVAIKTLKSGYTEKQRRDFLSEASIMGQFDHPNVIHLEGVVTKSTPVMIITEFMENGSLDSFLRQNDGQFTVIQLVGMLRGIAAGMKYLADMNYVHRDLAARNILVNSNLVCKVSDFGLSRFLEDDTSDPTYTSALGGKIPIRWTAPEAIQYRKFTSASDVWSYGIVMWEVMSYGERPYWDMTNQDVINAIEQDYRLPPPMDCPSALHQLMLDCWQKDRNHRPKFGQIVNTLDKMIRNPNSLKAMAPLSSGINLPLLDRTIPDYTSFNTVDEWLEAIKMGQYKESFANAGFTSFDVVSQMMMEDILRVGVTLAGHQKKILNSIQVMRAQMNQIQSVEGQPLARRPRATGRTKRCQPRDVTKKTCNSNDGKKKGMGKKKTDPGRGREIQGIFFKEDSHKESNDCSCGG

Ephrin type-B receptor 2 [2] = biological target: T1, Ephrin type-B receptor 2; experiment: Inhibition of EPH receptor B2 using ELISA

| SMILES | pKd (Ephrin type-B receptor 2 [1]) | pIC50 (Ephrin type-B receptor 2 [2]) |
| --- | --- | --- |
| COc1cc2ncnc(Nc3cccc(Br)c3)c2cc1OC | 5.09 | 4.99 |
| COc1cc2ncnc(Nc3cccc(O)c3)c2cc1OC | 5.62 | 5.92 |
| COc1cc2ncnc(Nc3ccc(Oc4ccccc4)cc3)c2cc1OC | 4.23 | 4.07 |

The remaining compounds from weak to strong by pIC50 (Ephrin type-B receptor 2 [2]), led by results:

| pKd (Ephrin type-B receptor 2 [1]) | pIC50 (Ephrin type-B receptor 2 [2]) | SMILES |
| --- | --- | --- |
| 4.44 | 4.28 | CC(C)(C)n1nc(-c2ccc(Cl)cc2)c2c(N)ncnc21 |
| – | 4.42 | O=C1C=C(Nc2ccc(O)cc2)C(=O)c2ccccc21 |
| 4.66 | 4.47 | CNc1ccc2c(Nc3cccc(Br)c3)ncnc2c1 |
| 4.71 | 4.56 | CN(C)c1ccc(/C=C2/C(=O)Nc3ccccc32)cc1 |
